This is an account of results in patent US11247972B2, “Compositions and methods for treating toxoplasmosis, cryptosporidiosis, and other apicomplexan protozoan related diseases” (University of Washington through its Center for …, priority 2010, dated 2022).

The structures appear in SMILES notation.

For one assay, the target named is TgCDPK1 (Toxoplasma gondii, UniProt Q9BJF5). Type of assay: biochemical.
For another assay, the target named is PfCDPK1 (Plasmodium falciparum (isolate 3D7), UniProt P62344). The experiment in a line: biochemical. As to conditions: read-out: PfCDPK1 (% inhibition @ 3 uM).
The target of a further assay is PfCDPK4 (Plasmodium falciparum (isolate 3D7), UniProt Q8IBS5). The assay is described as follows: biochemical. As to conditions: read-out: PfCDPK4 (% inhibition @ 3 uM).

Chain of TgCDPK1 (Q9BJF5 1-507): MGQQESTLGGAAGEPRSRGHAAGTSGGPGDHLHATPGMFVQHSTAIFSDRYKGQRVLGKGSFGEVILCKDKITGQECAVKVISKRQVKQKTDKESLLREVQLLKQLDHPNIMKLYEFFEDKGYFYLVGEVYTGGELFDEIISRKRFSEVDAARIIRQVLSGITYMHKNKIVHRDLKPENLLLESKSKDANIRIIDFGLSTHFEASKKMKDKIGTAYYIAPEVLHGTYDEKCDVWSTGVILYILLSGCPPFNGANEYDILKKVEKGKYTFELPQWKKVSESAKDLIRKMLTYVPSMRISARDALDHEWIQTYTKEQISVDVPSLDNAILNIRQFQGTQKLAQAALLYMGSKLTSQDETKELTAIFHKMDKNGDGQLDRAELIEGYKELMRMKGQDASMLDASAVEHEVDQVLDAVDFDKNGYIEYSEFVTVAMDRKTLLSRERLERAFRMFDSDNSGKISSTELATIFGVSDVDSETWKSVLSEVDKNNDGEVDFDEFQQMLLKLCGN

Consider `CC(C)n1nc(-c2ccc(Cl)cc2)c2c(N)ncnc21` [Compound 7a, 3-(4-chlorophenyl)-1-isopropyl-1H-pyrazolo[3,4-d]pyrimidin-4-amine], for which the “relative potency TgCDPK1 versus CpCDPK1 (in words)” value on TgCDPK1 is “more potent against TgCDPK1 than CpCDPK1”. Moreover, the inhibition at 3 µM stood at 97% at PfCDPK1 and 86% at PfCDPK4.

With `CSc1cccc(-c2nn(C(C)C)c3ncnc(N)c23)c1` [Compound 7ab, 1-isopropyl-3-(3-(methylthio)phenyl)-1H-pyrazolo[3,4-d]pyrimidin-4-amine], the “relative potency TgCDPK1 versus CpCDPK1 (in words)” value at TgCDPK1 was “more potent against TgCDPK1 than CpCDPK1”.

Regarding `CC(C)n1nc(-c2cccc(Cl)c2)c2c(N)ncnc21` [Compound 7b, 3-(3-chlorophenyl)-1-isopropyl-1H-pyrazolo[3,4-d]pyrimidin-4-amine], the “relative potency TgCDPK1 versus CpCDPK1 (in words)” value at TgCDPK1 is “more potent against TgCDPK1 than CpCDPK1”. The inhibition at 3 µM came out at 72% on PfCDPK1 and 85% at PfCDPK4.

On to `CC(C)c1ccc(-c2nn(C(C)C)c3ncnc(N)c23)cc1` [Compound 7d, 1-isopropyl-3-(4-isopropylphenyl)-1H-pyrazolo[3,4-d]pyrimidin-4-amine], for which the “relative potency TgCDPK1 versus CpCDPK1 (in words)” value on TgCDPK1 was “more potent against TgCDPK1 than CpCDPK1”. Also, the inhibition at 3 µM at PfCDPK1 came out at 90%; on PfCDPK4 it was 80%.

For `COc1cc(-c2nn(C(C)C)c3ncnc(N)c23)cc(OC)c1OC` [Compound 7l, 1-isopropyl-3-(3,4,5-trimethoxyphenyl)-1H-pyrazolo[3,4-d]pyrimidin-4-amine], the “relative potency TgCDPK1 versus CpCDPK1 (in words)” value at TgCDPK1 is “equipotent or slightly selective for CpCDPK1”.

Consider `N[C@@H](Cc1c[nH]cn1)C(=O)Nc1nc2ccc(C(=O)c3ccccc3)cc2[nH]1` [Compound 111], for which the values for the inhibition at 3 µM on PfCDPK1 and on PfCDPK4 were 63% and 41%, respectively.

For `O=C(CC1CCNCC1)Nc1nc2ccc(C(=O)c3ccccc3)cc2[nH]1` [Compound 113], the inhibition at 3 µM stood at 65% at PfCDPK1 and 61% at PfCDPK4.

Regarding `O=C(CCCC1CCNCC1)Nc1nc2ccc(C(=O)c3ccccc3)cc2[nH]1` [Compound 115], the inhibition at 3 µM on PfCDPK1 worked out at 71%; at PfCDPK4, 84%.

Turning to `O=C(CCC1CCNCC1)Nc1nc2ccc(C(=O)c3ccccc3)cc2[nH]1` [Compound 117], the inhibition at 3 µM at PfCDPK1 amounted to 71%; on PfCDPK4, 74%.

Regarding `Cc1cc(-c2nn(CC3CCNCC3)c3ncnc(N)c23)ccc1-c1ccccc1` [Compound 118], the inhibition at 3 µM was found to be 97% at PfCDPK1 and 81% on PfCDPK4.

In the case of `Nc1ncnc2c1c(-c1ccc3cc(O)ccc3c1)nn2CC1CCNCC1` [Compound 119], the inhibition at 3 µM turned out to be 102% on PfCDPK1 and 101% on PfCDPK4.

Turning to `Nc1ncnc2c1c(-c1ccc3oc(-c4ccccc4)nc3c1)nn2CC1CCNCC1` [Compound 120], the results for the inhibition at 3 µM at PfCDPK1 and at PfCDPK4 were 101% and 90%, respectively.

For the compound `Cn1ncc2cc(-c3nn(CC4CCNCC4)c4ncnc(N)c34)ccc21` [Compound 121], the inhibition at 3 µM at PfCDPK1 and on PfCDPK4 was 93% throughout.

For the compound `Nc1ncnc2c1c(-c1ccc3nccnc3c1)nn2CC1CCNCC1` [Compound 122], the figures for the inhibition at 3 µM at PfCDPK1 and at PfCDPK4 were 97% and 32%, respectively.

Consider `CC(C)(C)n1ncc2c(N)ncnc21` [Compound 123], for which the inhibition at 3 µM at PfCDPK1 came out at 62%; on PfCDPK4, 4%.

As for `CC(C)COc1ccc2cc(-c3nn(CC4CCN(C)CC4)c4ncnc(N)c34)ccc2c1` [Compound 124], the inhibition at 3 µM at PfCDPK1 worked out at 98%; at PfCDPK4 it was 93%.

Consider `Nc1ncnc2c1c(-c1ccc3ncccc3c1)nn2CC1CCNCC1` [Compound 125], for which the inhibition at 3 µM at PfCDPK1 is 89%; at PfCDPK4, 93%.

Take `O=C(NCCC1CCNCC1)Nc1nc2ccc(C(=O)c3ccccc3)cc2[nH]1` [Compound 126]: the inhibition at 3 µM is 76% on PfCDPK1 and 65% at PfCDPK4.

With `O=C(NCCCCO)Nc1nc2ccc(C(=O)c3ccccc3)cc2[nH]1` [Compound 127], the inhibition at 3 µM on PfCDPK1 came to 68%; on PfCDPK4, 46%.

As to `NCCCCNC(=O)Nc1nc2ccc(C(=O)c3ccccc3)cc2[nH]1` [Compound 128], the inhibition at 3 µM on PfCDPK1 amounted to 79%; on PfCDPK4, 64%.

Turning to `CC(C)(C)n1nc(Br)c2c(N)ncnc21` [Compound 129], the inhibition at 3 µM came out at 79% on PfCDPK1 and 9% at PfCDPK4.

With `CC(C)COc1ccc2cc(-c3nn(C(C)(C)C)c4ncnc(N)c34)ccc2c1` [Compound 130], the inhibition at 3 µM is 95% on PfCDPK1 and 47% at PfCDPK4.

As for `CC(C)(C)n1nc(-c2ccc3oc(-c4ccccc4)nc3c2)c2c(N)ncnc21` [Compound 131], the inhibition at 3 µM on PfCDPK1 turned out to be 100%; at PfCDPK4, 38%.

In the case of `COc1ccc(-c2nn(C(C)(C)C)c3ncnc(N)c23)cc1C` [Compound 132], the inhibition at 3 µM at PfCDPK1 and at PfCDPK4 was 96% each time.

As for `Cc1cc(-c2nn(C(C)(C)C)c3ncnc(N)c23)ccc1-c1ccccc1` [Compound 133], the results for the inhibition at 3 µM on PfCDPK1 and on PfCDPK4 were 79% and 26%, respectively.

On to `Cc1cccc(-c2nn(C(C)(C)C)c3ncnc(N)c23)c1` [Compound 134], for which the values for the inhibition at 3 µM on PfCDPK1 and at PfCDPK4 were 89% and 87%, respectively.

Consider `COc1ccc2cc(-c3nn(C(C)(C)C)c4ncnc(N)c34)ccc2c1` [Compound 135], for which the inhibition at 3 µM on PfCDPK1 turned out to be 96%; on PfCDPK4, 97%.

Take `CC(C)(C)n1nc(-c2ccc(-c3ccccc3)cc2)c2c(N)ncnc21` [Compound 136]: the figures for the inhibition at 3 µM on PfCDPK1 and at PfCDPK4 were 90% and 16%, respectively.

As for `CCOc1ccc2cc(-c3nn(C(C)(C)C)c4ncnc(N)c34)ccc2c1` [Compound 137], the inhibition at 3 µM on PfCDPK1 and on PfCDPK4 was 95% in each case.

Take `Cn1ccc2cc(-c3nn(C(C)(C)C)c4ncnc(N)c34)ccc21` [Compound 139]: the inhibition at 3 µM on PfCDPK1 was determined as 99%; at PfCDPK4 it was 96%.

In the case of `CC(C)(C)n1nc(-c2ccccc2)c2c(N)ncnc21` [Compound 140], the inhibition at 3 µM at PfCDPK1 was found to be 98%; on PfCDPK4 it was 90%.

`Cn1ncc2cc(-c3nn(C(C)(C)C)c4ncnc(N)c34)ccc21` [Compound 142]: the inhibition at 3 µM at PfCDPK1 is 98%; at PfCDPK4, 97%.

With `CC(C)(C)n1nc(-c2ccc3ncccc3c2)c2c(N)ncnc21` [Compound 143], the inhibition at 3 µM on PfCDPK1 and at PfCDPK4 was 97% throughout.

Consider `COc1ccc(-c2nn(CC3CCNCC3)c3ncnc(N)c23)cc1C` [Compound 144], for which the inhibition at 3 µM amounted to 95% on PfCDPK1 and 94% at PfCDPK4.

Regarding `Nc1ncnc2c1c(-c1ccccc1)nn2CC1CCNCC1` [Compound 145], the inhibition at 3 µM on PfCDPK1 amounted to 93%; at PfCDPK4, 63%.

`Nc1ncnc2c1c(-c1ccc3ccccc3c1)nn2CC1CCNCC1` [Compound 147, 3-(naphthalen-2-yl)-1-(piperidin-4-ylmethyl)-1H-pyrazolo[3,4-d]pyrimidin-4-amine]: the values for the inhibition at 3 µM at PfCDPK1 and at PfCDPK4 were 100% and 99%, respectively.
